In this experiment the test system is CD34^+ mPB cells. Nature of the experiment: Effect of garcinol and VPA on medium performance: 7-day expansion of CD34+ mPB cells in medium ± VPA or garcinol. It is filed as cell-based. Also on record: key to % CD34^+CD90^+ / Fold TNC / % CD34^+ / Fold CD34^+: (+) is baseline; (++) or greater improvement; (*) denotes no data (the cells died when garcinol was added to ACF). The settings on record: for % CD34^+CD90^+ / Fold TNC / % CD34^+ / Fold CD34^+: day 7, three donors. As for the experimental part:
In vitro expansion. Enriched CD34^+ cells from three donors of human mobilized peripheral blood (mPB, AllCells) were cultured in the following serum free media: HSC Medium (as provided herein), and the commercially available Stem Cell Growth Medium (SCGM, CellGenix GmbH), STEMSPAN™ Animal Component Free (ACF, STEMCELL Technologies), and STEMPRO™ 34 (Thermo Fisher Scientific). All media were supplemented with 100 ng/mL SCF, 100 ng/mL FLT-3L, 100 ng/mL TPO, 50 ng/mL IL-3, and 20 ng/mL IL-6 (all provided by Thermo Fisher Scientific). HSC expansion was initiated by culturing 5×10^3 CD34^+ cells/mL in a 48 well plate for 7 days in a humidified 37° C., 5% CO2 incubator. At day 7, total nucleated cell (TNC) number and % viability were assessed using a Countess II cell counter (Thermo Fisher Scientific), and cell phenotype was performed by flow cytometry.
Flow cytometry analysis. TNC were washed in phosphate-buffered saline (PBS) and incubated for 20 minutes at room temperature with LIVE/DEAD® Fixable Yellow stain in PBS. Cells were washed in flow cytometry staining buffer, and incubated with a cocktail of monoclonal antibodies against human cell surface antigens: CD34 PE-Cy7, CD90 APC, CD45RA Pacific Blue, for 30 minutes at 4° C. Cells were analyzed on a Attune NxT flow cytometer (Thermo Fisher Scientific), and FLOWJO® Software (version 7.6.5 Becton Dickinson).
Effect of small molecules to medium performance. To assess the contribution of valproic acid (VPA) and garcinol to competitor media, the small molecules were added to SCGM and STEMSPAN™ ACF either in combination or individually at the final concentration present in HSC Medium. To address whether there is a reduction in performance of HSC Medium when the small molecules were excluded from the formulation, either VPA or garcinol were removed during manufacture. CD34^+ mPB cells from three donors were cultured as described above (Example 1) in medium±VPA or garcinol, and compared with HSC medium, STEMSPAN™ ACF, SCGM or STEMSPAN™ ACF with STEMSPAN™ CD34^+ Expansion Supplement (10×). At day 7, cells were assessed for TNC, % viability, CD34^+, CD34^+CD90^+CD45RA^− cells as described above. To pool data points (CD34^+ expansion, TNC expansion) from the three donors, all conditions were normalized to SCGM media the standard error calculated. For pooling of % CD34^+ and % CD34^+CD90^+CD45RA^− data points in the three donors, the values were averaged and standard error calculated.

The mark [1] stands for this setting: in HSC Medium made with the named small molecule(s) only.
[2] abbreviates: small molecule(s) added to SCGM.
[3] abbreviates: small molecule(s) added to ACF (STEMSPAN ACF).

Take `C=C(C)[C@@H](CC=C(C)C)C[C@@]12C[C@@H](CC=C(C)C)C(C)(C)[C@@](CC=C(C)C)(C(=O)C(C(=O)c3ccc(O)c(O)c3)=C1O)C2=O` [Garcinol, garcinol]: under setting [1], the “% CD34^+CD90^+” value was “+” and the “Fold TNC” value is listed as “+”. In addition, under setting [2], the “% CD34^+” value is listed as “+”, the “% CD34^+CD90^+” value is given as “+”, the “Fold CD34^+” value was “+” and the “Fold TNC” value was “+”.
With `CCCC(CCC)C(=O)O` [VPA, valproic acid], where the note is “added to ACF”, the “performance (HSC expansion)” value is “boosted performance to HSC Medium (with garcinol and VPA) levels”. In addition, the “% CD34^+CD90^+CD45RA^−” value (added to competitor media) is “improved”. Further, the “expansion of HSC / performance” value (added to competitor media (SCGM, STEMSPAN ACF)) is listed as “improved expansion of HSC”. Moreover, under setting [1], the “% CD34^+” value is “++”, the “Fold CD34^+” value was “+” and the “Fold TNC” value is listed as “+”. Also, under setting [3], the “% CD34^+” value was “++” and the “% CD34^+CD90^+” value is recorded as “++”. For the same molecule, under setting [2], the “% CD34^+” value is “++”, the “% CD34^+CD90^+” value was “++”, the “Fold CD34^+” value was “++” and the “Fold TNC” value is “++”.
